# Patent US10392391B2 (Vertex Pharmaceuticals Incorporated, priority 2012, dated 2019)
# Molecular target: ATR kinase (full-length ATR) (Homo sapiens (Human), UniProt Q13535)
# Test: ATR inhibition assay (radioactive-phosphate incorporation)
# Assay type: biochemical
# Details: not given
# Outline: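 Ki(app) was fitted by non-linear regression to background-corrected initial rates. Full-length ATR (5 nM) phosphorylated 800 μM peptide using 10 μM [γ-33P]ATP at 25° C in Tris/HCl pH 7.5 buffer with MgCl2, DTT and 7% DMSO. After 10-minute compound pre-incubation and 24-hour reaction, phosphocellulose filters were scintillation counted.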
# Sequence of ATR kinase (full-length ATR) (Q13535 whole entry): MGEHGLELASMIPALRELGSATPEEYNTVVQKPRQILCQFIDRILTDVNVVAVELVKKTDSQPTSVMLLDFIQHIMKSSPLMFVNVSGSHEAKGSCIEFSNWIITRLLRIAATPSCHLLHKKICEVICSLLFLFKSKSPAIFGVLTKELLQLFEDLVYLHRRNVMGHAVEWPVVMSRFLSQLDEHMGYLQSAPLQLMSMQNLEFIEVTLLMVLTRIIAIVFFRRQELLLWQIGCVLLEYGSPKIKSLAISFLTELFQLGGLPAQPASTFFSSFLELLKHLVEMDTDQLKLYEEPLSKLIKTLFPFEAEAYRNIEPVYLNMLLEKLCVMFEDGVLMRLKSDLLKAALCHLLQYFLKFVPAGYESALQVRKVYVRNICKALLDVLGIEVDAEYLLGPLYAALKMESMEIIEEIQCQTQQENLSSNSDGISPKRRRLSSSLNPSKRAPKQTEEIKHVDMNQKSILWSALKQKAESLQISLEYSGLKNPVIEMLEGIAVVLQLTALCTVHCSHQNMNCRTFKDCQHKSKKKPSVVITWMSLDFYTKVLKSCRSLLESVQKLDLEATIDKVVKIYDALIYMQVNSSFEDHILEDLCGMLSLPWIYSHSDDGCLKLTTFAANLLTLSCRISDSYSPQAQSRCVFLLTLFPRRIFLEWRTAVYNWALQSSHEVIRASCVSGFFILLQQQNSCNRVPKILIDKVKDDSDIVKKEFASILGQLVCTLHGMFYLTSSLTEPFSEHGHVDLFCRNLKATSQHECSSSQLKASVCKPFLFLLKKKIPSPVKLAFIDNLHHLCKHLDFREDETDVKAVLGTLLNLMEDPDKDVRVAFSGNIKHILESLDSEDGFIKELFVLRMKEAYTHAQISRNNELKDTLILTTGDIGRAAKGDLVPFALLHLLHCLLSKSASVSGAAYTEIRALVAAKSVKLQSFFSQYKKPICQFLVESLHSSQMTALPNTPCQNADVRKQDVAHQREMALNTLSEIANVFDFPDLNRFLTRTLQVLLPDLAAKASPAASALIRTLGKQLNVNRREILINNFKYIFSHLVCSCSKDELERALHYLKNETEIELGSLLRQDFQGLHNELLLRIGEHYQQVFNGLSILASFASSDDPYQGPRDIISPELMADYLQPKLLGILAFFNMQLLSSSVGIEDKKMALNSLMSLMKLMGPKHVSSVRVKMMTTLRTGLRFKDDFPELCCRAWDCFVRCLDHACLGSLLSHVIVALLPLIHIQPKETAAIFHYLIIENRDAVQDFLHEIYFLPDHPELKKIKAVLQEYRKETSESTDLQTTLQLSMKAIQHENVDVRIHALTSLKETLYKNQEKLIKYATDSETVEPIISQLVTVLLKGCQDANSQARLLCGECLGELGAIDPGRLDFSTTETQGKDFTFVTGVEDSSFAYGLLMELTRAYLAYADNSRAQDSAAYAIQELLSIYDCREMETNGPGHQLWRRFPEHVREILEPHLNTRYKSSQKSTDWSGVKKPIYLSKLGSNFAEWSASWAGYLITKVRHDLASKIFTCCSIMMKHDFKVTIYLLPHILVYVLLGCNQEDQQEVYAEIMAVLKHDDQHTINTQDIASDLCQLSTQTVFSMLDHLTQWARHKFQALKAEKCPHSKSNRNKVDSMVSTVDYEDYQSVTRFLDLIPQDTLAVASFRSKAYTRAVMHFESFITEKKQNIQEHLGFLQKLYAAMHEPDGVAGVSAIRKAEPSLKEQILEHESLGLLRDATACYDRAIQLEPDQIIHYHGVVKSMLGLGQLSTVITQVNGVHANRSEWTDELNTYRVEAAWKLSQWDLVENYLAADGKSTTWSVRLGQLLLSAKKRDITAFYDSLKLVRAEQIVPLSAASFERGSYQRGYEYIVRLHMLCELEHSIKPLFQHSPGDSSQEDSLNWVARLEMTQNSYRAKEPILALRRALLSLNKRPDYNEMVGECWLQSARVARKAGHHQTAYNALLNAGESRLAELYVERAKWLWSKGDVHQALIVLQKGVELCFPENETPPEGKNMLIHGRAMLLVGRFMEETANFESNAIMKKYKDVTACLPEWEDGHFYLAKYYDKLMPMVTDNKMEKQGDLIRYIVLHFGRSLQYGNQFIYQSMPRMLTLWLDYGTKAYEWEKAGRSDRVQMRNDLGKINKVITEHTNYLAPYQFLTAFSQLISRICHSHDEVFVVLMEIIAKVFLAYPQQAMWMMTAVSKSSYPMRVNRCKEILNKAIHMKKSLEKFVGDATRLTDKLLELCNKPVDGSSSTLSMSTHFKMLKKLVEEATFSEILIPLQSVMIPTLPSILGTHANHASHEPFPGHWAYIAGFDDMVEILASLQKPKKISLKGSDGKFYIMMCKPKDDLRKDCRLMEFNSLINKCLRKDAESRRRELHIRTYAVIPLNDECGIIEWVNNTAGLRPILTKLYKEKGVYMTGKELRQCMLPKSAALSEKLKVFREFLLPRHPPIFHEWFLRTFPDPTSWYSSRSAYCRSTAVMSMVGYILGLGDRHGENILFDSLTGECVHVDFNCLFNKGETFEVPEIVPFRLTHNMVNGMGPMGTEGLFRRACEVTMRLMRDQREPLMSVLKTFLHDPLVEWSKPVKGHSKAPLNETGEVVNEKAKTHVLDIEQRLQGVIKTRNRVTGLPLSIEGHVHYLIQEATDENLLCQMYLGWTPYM
row,Structure (SMILES),Ki [µM]
1,"CNCCc1cnn(-c2ccncc2NC(=O)c2c(N)nn3cc(F)cnc23)c1 [I-N-8, 2-amino-6-fluoro-N-(4-(4-(2-(methylamino)ethyl)-1H-pyrazol-1-yl)pyridin-3-yl)pyrazolo[1,5-a]pyrimidine-3-carboxamide]",1 to 5
2,"CN1CCC(c2ccncc2NC(=O)c2c(N)nn3cc(F)cnc23)CC1 [I-C-1, 2-amino-6-fluoro-N-(4-(1-methylpiperidin-4-yl)pyridin-3-yl)pyrazolo[1,5-a]pyrimidine-3-carboxamide]",1 to 5

# Same assay, conditions: Ki(app), 5 nM full-length ATR, 10 μM ATP, 25° C.
row,Structure (SMILES),Ki [µM]
1,"Nc1nn2cc(F)cnc2c1C(=O)Nc1cncc(F)c1N1CCC(C(=O)N2CCC2)CC1 [I-G-8, 2-amino-N-(4-(4-(azetidine-1-carbonyl)piperidin-1-yl)-5-fluoropyridin-3-yl)-6-fluoropyrazolo[1,5-a]pyrimidine-3-carboxamide]",0.01 to 1
2,"CC(C)N1CCN(c2ccncc2NC(=O)c2c(N)nn3cc(Cl)cnc23)CC1 [I-N-39, 2-amino-6-chloro-N-(4-(4-isopropylpiperazin-1-yl)pyridin-3-yl)pyrazolo[1,5-a]pyrimidine-3-carboxamide]",0.01 to 1
3,"Nc1nn2cc(F)cnc2c1C(=O)Nc1cnccc1N1CCC(S(=O)(=O)N2CCN3CCC2CC3)CC1 [I-N-196, N-(4-(4-(1,4-diazabicyclo[3.2.2]nonan-4-ylsulfonyl)piperidin-1-yl)pyridin-3-yl)-2-amino-6-fluoropyrazolo[1,5-a]pyrimidine-3-carboxamide]",0.01 to 1
4,"Cc1cnccc1-c1ccncc1NC(=O)c1c(N)nn2cc(F)cnc12 [I-C-29, 2-amino-6-fluoro-N-(3′-methyl-[4,4′-bipyridin]-3-yl)pyrazolo[1,5-a]pyrimidine-3-carboxamide]",0.01 to 1
5,"Nc1nn2cc(F)cnc2c1C(=O)Nc1cncc(F)c1N1CCN2CCOC[C@H]2C1 [I-N-135, (R)-2-amino-6-fluoro-N-(5-fluoro-4-(hexahydropyrazino[2,1-c][1,4]oxazin-8(1H)-yl)pyridin-3-yl)pyrazolo[1,5-a]pyrimidine-3-carboxamide]",0.01 to 1
6,"CN1CCN(c2c(F)cncc2NC(=O)c2c(N)nn3cc(Cl)cnc23)CC1 [I-N-14, 2-amino-6-chloro-N-(5-fluoro-4-(4-methylpiperazin-1-yl)pyridin-3-yl)pyrazolo[1,5-a]pyrimidine-3-carboxamide]",0.01 to 1
7,"Nc1nn2cc(F)cnc2c1C(=O)Nc1cnccc1Oc1cccnc1 [I-O-7, 2-amino-6-fluoro-N-(4-(pyridin-3-yloxy)pyridin-3-yl)pyrazolo[1,5-a]pyrimidine-3-carboxamide]",0.01 to 1
8,"COCCN1CCC[C@H](Oc2ccncc2NC(=O)c2c(N)nn3cc(Cl)cnc23)C1 [I-O-67, (S)-2-amino-6-chloro-N-(4-((1-(2-methoxyethyl)piperidin-3-yl)oxy)pyridin-3-yl)pyrazolo[1,5-a]pyrimidine-3-carboxamide]",0.01 to 1
9,"Nc1nn2cc(F)cnc2c1C(=O)Nc1cncc(F)c1N1CCN(C2CCOCC2)CC1 [I-N-121, 2-amino-6-fluoro-N-(5-fluoro-4-(4-(tetrahydro-2H-pyran-4-yl)piperazin-1-yl)pyridin-3-yl)pyrazolo[1,5-a]pyrimidine-3-carboxamide]",0.01 to 1
10,"Nc1nn2cc(F)cnc2c1C(=O)Nc1cnccc1C1CCN(C2COC2)CC1 [I-C-10, 2-amino-6-fluoro-N-(4-(1-(oxetan-3-yl)piperidin-4-yl)pyridin-3-yl)pyrazolo[1,5-a]pyrimidine-3-carboxamide]",0.01 to 1
11,"Cc1nccnc1-c1ccncc1NC(=O)c1c(N)nn2cc(F)cnc12 [I-C-62, 2-amino-6-fluoro-N-(4-(3-methylpyrazin-2-yl)pyridin-3-yl)pyrazolo[1,5-a]pyrimidine-3-carboxamide]",0.01 to 1
12,"CN1CCN(c2ccncc2NC(=O)c2c(N)nn3cc(Cl)cnc23)CC1CO (stereo not drawn) [I-N-63, 2-amino-6-chloro-N-(4-(3-(hydroxymethyl)-4-methylpiperazin-1-yl)pyridin-3-yl)pyrazolo[1,5-a]pyrimidine-3-carboxamide]",0.01 to 1
13,"CS(=O)(=O)C1CCN(c2ccncc2NC(=O)c2c(N)nn3cc(F)cnc23)CC1 [I-N-190, 2-amino-6-fluoro-N-(4-(4-(methylsulfonyl)piperidin-1-yl)pyridin-3-yl)pyrazolo[1,5-a]pyrimidine-3-carboxamide]",0.01 to 1
14,"Nc1nn2cc(F)cnc2c1C(=O)Nc1cnccc1N1CCN2C(=O)CC[C@@H]2C1 [I-N-258, (R)-2-amino-6-fluoro-N-(4-(6-oxohexahydropyrrolo[1,2-a]pyrazin-2(1H)-yl)pyridin-3-yl)pyrazolo[1,5-a]pyrimidine-3-carboxamide]",0.01 to 1
15,"Nc1nn2cc(F)cnc2c1C(=O)Nc1cncc(F)c1N1CC(=O)N2CCCC2C1 (stereo not drawn) [I-N-232, 2-amino-6-fluoro-N-(5-fluoro-4-(4-oxohexahydropyrrolo[1,2-a]pyrazin-2(1H)-yl)pyridin-3-yl)pyrazolo[1,5-a]pyrimidine-3-carboxamide]",0.01 to 1
16,"Nc1nn2cc(F)cnc2c1C(=O)Nc1cncc(F)c1N1CCC(OCCN2CCCC2)CC1 [I-N-167, 2-amino-6-fluoro-N-(5-fluoro-4-(4-(2-(pyrrolidin-1-yl)ethoxy)piperidin-1-yl)pyridin-3-yl)pyrazolo[1,5-a]pyrimidine-3-carboxamide]",0.01 to 1
17,"Nc1nn2cc(F)cnc2c1C(=O)Nc1cnccc1N1CCC(S(=O)(=O)C2COC2)CC1 [I-N-200, 2-amino-6-fluoro-N-(4-(4-(oxetan-3-ylsulfonyl)piperidin-1-yl)pyridin-3-yl)pyrazolo[1,5-a]pyrimidine-3-carboxamide]",0.01 to 1

row,Structure (SMILES),Ki [µM]
1,Cc1cncc(NC(=O)c2c(N)nn3cc(F)cnc23)c1-n1nccc1C [I-N-237],0.01 to 1
2,"Cc1ncn(-c2ccncc2NC(=O)c2c(N)nn3cc(F)cnc23)c1C [I-N-269, 2-amino-N-(4-(4,5-dimethyl-1H-imidazol-1-yl)pyridin-3-yl)-6-fluoropyrazolo[1,5-a]pyrimidine-3-carboxamide]",0.01 to 1
3,"Nc1nn2cc(F)cnc2c1C(=O)Nc1cnccc1O[C@@H]1CN2CCC1CC2 [I-O-10, (S)-2-amino-6-fluoro-N-(4-(quinuclidin-3-yloxy)pyridin-3-yl)pyrazolo[1,5-a]pyrimidine-3-carboxamide]",0.01 to 1
4,"Nc1nn2cc(F)cnc2c1C(=O)Nc1cncc(C2CC2)c1N1CCN([C@H]2CCOC2)CC1 [I-N-120, (S)-2-amino-N-(5-cyclopropyl-4-(4-(tetrahydrofuran-3-yl)piperazin-1-yl)pyridin-3-yl)-6-fluoropyrazolo[1,5-a]pyrimidine-3-carboxamide]",0.01 to 1
5,"Nc1nn2cc(F)cnc2c1C(=O)Nc1cncc(F)c1N1CCS(=O)(=O)CC1 [I-N-250, 2-amino-N-(4-(1,1-dioxidothiomorpholino)-5-fluoropyridin-3-yl)-6-fluoropyrazolo[1,5-a]pyrimidine-3-carboxamide]",0.01 to 1
6,"CN(C)CCOCCOc1ccncc1NC(=O)c1c(N)nn2cc(Cl)cnc12 [I-O-47, 2-amino-6-chloro-N-(4-(2-(2-(dimethylamino)ethoxy)ethoxy)pyridin-3-yl)pyrazolo[1,5-a]pyrimidine-3-carboxamide]",0.01 to 1
7,"COCCn1cncc1-c1ccncc1NC(=O)c1c(N)nn2cc(F)cnc12 [I-C-83, 2-amino-6-fluoro-N-(4-(1-(2-methoxyethyl)-1H-imidazol-5-yl)pyridin-3-yl)pyrazolo[1,5-a]pyrimidine-3-carboxamide]",0.01 to 1
8,"N#CCc1cnc2c(C(=O)Nc3cnccc3Oc3ccccc3)c(N)nn2c1 [I-O-25, 2-amino-6-(cyanomethyl)-N-(4-phenoxypyridin-3-yl)pyrazolo[1,5-a]pyrimidine-3-carboxamide]",< 0.01
9,"Nc1nn2cc(Cl)cnc2c1C(=O)Nc1cnccc1N1CCC(N2CCOCC2)CC1 [I-N-104, 2-amino-6-chloro-N-(4-(4-morpholinopiperidin-1-yl)pyridin-3-yl)pyrazolo[1,5-a]pyrimidine-3-carboxamide]",0.01 to 1
10,"Nc1nn2cc(Cl)cnc2c1C(=O)Nc1cnccc1O[C@H]1CCOC1 [I-O-58, (S)-2-amino-6-chloro-N-(4-((tetrahydrofuran-3-yl)oxy)pyridin-3-yl)pyrazolo[1,5-a]pyrimidine-3-carboxamide]",0.01 to 1
11,"Nc1nn2cc(F)cnc2c1C(=O)Nc1cnccc1O[C@H]1CCCNC1 [I-O-85, (S)-2-amino-6-fluoro-N-(4-(piperidin-3-yloxy)pyridin-3-yl)pyrazolo[1,5-a]pyrimidine-3-carboxamide]",0.01 to 1
12,"N#CCc1cnc2c(C(=O)Nc3cnccc3OCC3CC3)c(N)nn2c1 [I-O-32, 2-amino-6-(cyanomethyl)-N-(4-(cyclopropylmethoxy)pyridin-3-yl)pyrazolo[1,5-a]pyrimidine-3-carboxamide]",< 0.01
13,"Cc1nc(N2CCN(C)CC2)ccc1-c1ccncc1NC(=O)c1c(N)nn2cc(F)cnc12 [I-C-40, 2-amino-6-fluoro-N-(2-methyl-6-(4-methylpiperazin-1-yl)-[3,4′-bipyridin]-3′-yl)pyrazolo[1,5-a]pyrimidine-3-carboxamide]",0.01 to 1
14,"CN1CCC(Oc2ccncc2NC(=O)c2c(N)nn3cc(CC#N)cnc23)CC1 [I-O-23, 2-amino-6-(cyanomethyl)-N-(4-((1-methylpiperidin-4-yl)oxy)pyridin-3-yl)pyrazolo[1,5-a]pyrimidine-3-carboxamide]",0.01 to 1
15,"N#CCc1cnc2c(C(=O)Nc3cnccc3OC3CCCNC3)c(N)nn2c1 (racemic) [I-O-2, (R,S)-2-amino-6-(cyanomethyl)-N-(4-(piperidin-3-yloxy)pyridin-3-yl)pyrazolo[1,5-a]pyrimidine-3-carboxamide]",< 0.01
16,"COCCN1CCN(c2c(F)cncc2NC(=O)c2c(N)nn3cc(F)cnc23)CC1 [I-N-127, 2-amino-6-fluoro-N-(5-fluoro-4-(4-(2-methoxyethyl)piperazin-1-yl)pyridin-3-yl)pyrazolo[1,5-a]pyrimidine-3-carboxamide]",0.01 to 1
17,"Cn1nccc1-c1ccncc1NC(=O)c1c(N)nn2cc(F)cnc12 [I-C-57, 2-amino-6-fluoro-N-(4-(1-methyl-1H-pyrazol-5-yl)pyridin-3-yl)pyrazolo[1,5-a]pyrimidine-3-carboxamide]",0.01 to 1
